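Tested at 5 concentrations; 48 h exposure; 96-well plates; endpoints linearly interpolated, else capped at highest concentration. GI50: concentration for 50% inhibition of growth. TGI denotes the concentration required for complete inhibition of growth.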
How the values were obtained:
Assay in all cases: NCI-60 cell line screen, 48 h
CCRF-CEM leukemia = tested on: CCRF-CEM leukemia
HCC-2998 colon = tested on: HCC-2998 colon
HL-60(TB) leukemia = tested on: HL-60(TB) leukemia
HT29 colon = tested on: HT29 colon
KM20L2 colon = tested on: KM20L2 colon
LXFL 529 NSCLC = tested on: LXFL 529 NSCLC
RPMI-8226 leukemia = tested on: RPMI-8226 leukemia
UACC-62 melanoma = tested on: UACC-62 melanoma
CAKI-1 renal = tested on: CAKI-1 renal
DU-145 prostate = tested on: DU-145 prostate

Row | Structure (SMILES) | TGI (CCRF-CEM leukemia) | TGI (HCC-2998 colon) | TGI (HL-60(TB) leukemia) | TGI (HT29 colon) | TGI (KM20L2 colon) | TGI (LXFL 529 NSCLC) | TGI (RPMI-8226 leukemia) | TGI (UACC-62 melanoma) | TGI (CAKI-1 renal) | GI50 (CAKI-1 renal) | GI50 (CCRF-CEM leukemia) | GI50 (DU-145 prostate) | TGI (DU-145 prostate) | GI50 (HCC-2998 colon) | GI50 (HL-60(TB) leukemia) | GI50 (HT29 colon) | GI50 (RPMI-8226 leukemia) | GI50 (UACC-62 melanoma)
1 | Clc1ccccc1C1N2CCCCC2[C@@H]2c3[nH]c4ccccc4c3CCN12 (stereo not given in full) | 52.9 µM | 36.9 µM | > 100 µM | 31.8 µM | 34.1 µM | > 100 µM | 66.6 µM | 30.2 µM |  |  |  |  |  |  |  |  |  | 
2 | O=C(N[C@@H]1C=CCC[C@@H]1c1ccccc1)OCc1ccccc1 | 43.9 µM | 49.3 µM | 34.6 µM | 53.1 µM | 40.6 µM | 49.8 µM | 57.2 µM | 28 µM | 45.1 µM |  |  |  |  |  |  |  |  | 
3 | COc1ccc(OC)c(/C=C/C(=O)C(C)(C)C)c1 | 44.5 µM | 39.7 µM | 38.7 µM | 64.1 µM | 50.3 µM | 36.4 µM | 40.7 µM | 23.4 µM | 39.1 µM |  |  |  |  |  |  |  |  | 
4 | CC1(C(=O)NCCN(CCNC(=O)C2(C)CC3(C)CC(C)(C2)C(=O)NC3=O)CCNC(=O)C2(C)CC3(C)CC(C)(C2)C(=O)NC3=O)CC2(C)CC(C)(C1)C(=O)NC2=O (stereo not given) | > 100 µM | > 100 µM | > 100 µM | > 100 µM | > 100 µM | > 100 µM | > 100 µM | > 100 µM | > 100 µM |  |  |  |  |  |  |  |  | 
5 | CCOC(=O)C1(Br)C(c2ccccc2)NC(=O)N(C2OC(COC(=O)c3ccccc3)C(OC(=O)c3ccccc3)C2OC(=O)c2ccccc2)C1(C)Br (stereo not given) | 18.8 µM | > 100 µM |  | > 100 µM | > 100 µM | > 75.7 µM | 33.2 µM | 60.1 µM | > 100 µM |  |  |  |  |  |  |  |  | 
6 | CCOC(=O)C12CCSC1C1(C#N)C(C#N)=CC2(N=P(c2ccccc2)(c2ccccc2)c2ccccc2)n2c(=O)n(-c3ccccc3)c(=O)n21 (stereo not given) | > 100 µM | > 100 µM | 71.5 µM | > 100 µM | > 100 µM | > 100 µM | 73.4 µM | 77.9 µM | > 100 µM |  |  |  |  |  |  |  |  | 
7 | C=CC1(c2ccccc2Cl)N/C(=C/OCC)CO1 (stereo not given) | > 100 µM | > 100 µM | > 100 µM | > 100 µM | > 100 µM | > 100 µM | 65 µM | > 100 µM | > 100 µM |  |  |  |  |  |  |  |  | 
8 | Cc1cc2c(=O)cc(-c3ccc(C(F)(F)F)cc3)oc2c(C(=O)O)c1C | > 100 µM |  |  | > 100 µM | > 100 µM | > 100 µM | > 100 µM | > 100 µM | > 100 µM |  |  |  |  |  |  |  |  | 
9 | CN1C(=O)N(C)C2C1NN=c1s/c(=C\c3c[nH]c4ccccc34)c(=O)n12 (stereo not given) | > 100 µM | > 100 µM | 0.858 µM | > 100 µM |  |  | 1.55 µM | > 100 µM | > 100 µM | 0.0309 µM | 0.0337 µM | 0.0428 µM | > 28.9 µM | 0.0352 µM | 0.0305 µM | 0.0377 µM | 0.0346 µM | 0.0464 µM
10 | CSC1=Nc2c(c(C)c(-c3ccccc3)n2CCCCl)C2=NC(=O)CN12 | > 100 µM | 19.7 µM | > 100 µM | 19.5 µM |  |  | 66.5 µM | 11.6 µM | 28.1 µM | 4.6 µM | 5.08 µM | 11.5 µM | 26.7 µM | 4.52 µM | 3.41 µM | 3.85 µM | 3.68 µM | 2.08 µM
11 | NC1=NN(c2ccccc2)C(=O)C1/C(=N\NC(=O)c1cc2ccccc2cc1O)C(=O)Nc1nc([N+](=O)[O-])cs1 (stereo not given) | 59.7 µM | > 100 µM | 37.9 µM | > 93 µM | > 100 µM | > 100 µM | 87.8 µM | 56.6 µM | 99 µM |  |  |  |  |  |  |  |  | 
12 | Cc1ccc(/C=N/NS(=O)(=O)c2ccccc2)cc1 | > 100 µM | > 100 µM | > 100 µM | > 100 µM | > 100 µM | > 100 µM | > 100 µM | > 100 µM | > 100 µM |  |  |  |  |  |  |  |  | 
13 | CCOc1ccccc1NC(=O)C(=O)C(C(=O)c1ccc2ccccc2c1)C1OC(=O)c2ccccc21 (stereo not given) | 69.1 µM | 22.9 µM | 59.3 µM | 76.4 µM | 77 µM | 19.4 µM | 40 µM | 21.3 µM | 36.8 µM |  |  |  |  |  |  |  |  | 
14 | O=C(c1ccccn1)c1nc(-c2ccc(Cl)c(Cl)c2)nc2ccc(Cl)cc12 | > 100 µM | > 100 µM | > 100 µM | > 100 µM | > 100 µM | > 100 µM | > 100 µM | > 100 µM | > 100 µM |  |  |  |  |  |  |  |  | 
15 | Nc1ccc(-c2ccc(Nc3cc(S(=O)(=O)O)c(N)c4c3C(=O)c3ccccc3C4=O)cc2)c(S(=O)(=O)O)c1 | > 100 µM | > 100 µM | > 100 µM | > 100 µM |  |  | > 100 µM | > 100 µM | > 100 µM |  |  |  | > 100 µM |  |  |  |  | 
16 | COc1cc(/C=C2\CCCC3C2=Nc2ccccc2NC3c2cc(OC)c(OC)c(OC)c2)cc(OC)c1OC (stereo not given) | 3.6 µM | 4.81 µM | 4.97 µM |  |  |  | 2.4 µM | 3.52 µM | > 100 µM | 3.31 µM | 0.591 µM | 1.87 µM | 6.8 µM | 2.3 µM | 2.44 µM | 1.21 µM | 0.389 µM | 1.37 µM
17 | O=C1NC2(CCCC2)/C(=N\O)C12CCCC2 | > 100 µM |  | > 100 µM | > 100 µM |  | > 100 µM |  | > 100 µM | > 100 µM |  |  |  |  |  |  |  |  | 
